Tested on: acyl-CoA:cholesterol acyltransferase (ACAT)
Experiment: Assay for ACAT activity with [1-14C]oleoyl-CoA and rat liver microsomal enzyme
Conditions: ACAT inhibition, compared with the positive control obovatol
Procedure: The livers were removed from Male Sprague-Dawley rats (250-300 g), washed with microsome buffer A (0.25 M sucrose, 1 mM EDTA, 0.01 M Tris-HCl, pH 7.4), finely fractioned with scissors, and homogenized using a Teflon-glass homogenizer.
A reaction solution was prepared by mixing 10.0 μl of the sample, 4.0 μl of a rat liver microsomal enzyme of rat, 20.0 μl of an assay buffer [0.5 M KH2PO4, 10 mM DTT, pH 7.4], 15.0 μl of 40 mg/me BSA (essentially fatty acid free), 2.0 μl of 20 mg/me cholesterol, and 41.0 μl of distilled water, and subjected to pre-reaction at 37° C. for 20 min. To this enzymatic solution was added 8.0 μl of [1-^14C]oleoyl-CoA (0.05 μCi, final conc. 10 μM), and enzyme reaction was carried out at 37° C. for 25 min and terminated with 1 ml of isopropanol-heptane (4:1 v/v). Following the addition of 0.6 ml of heptane and 0.4 ml of five fold-diluted assay buffer, centrifugation was performed to separate the organic solvent. 100 μl of the supernatant was mixed well with 3 ml of Lipoluma scintillation cocktail and radioactivity was measured using a liquid scintillation counter.
Activity of inhibiting ACAT was quantified as radioactivity detected in the product of the reaction between the radio-labeled substrate and the enzyme in the presence of the assay samples, and percentage activity inhibition was calculated according to Equation 1 as follows.
CPM (T): CPM detected upon co-existence of sample and enzyme
CPM (C1): CPM upon existence of enzyme alone in the absence of sample
CPM (C2): CPM detected upon existence of sample alone in the absence of enzyme
CPM (B): CPM detected in the absence of both enzyme and sample.

With `CC(C)CNC(=O)/C=C/C=C/CCCC/C=C/c1ccc2c(c1)OCO2` [Chemical Formula 2, pipercide] the “inhibitory activity relative to obovatol” value was 12 times.

Same assay, conditions: read-out: IC50 against ACAT; rat liver microsomal enzyme

First: CC(C)CNC(=O)/C=C/C=C/CCCC/C=C/c1ccc2c(c1)OCO2 [Chemical Formula 2, pipercide]
Second: O=C(/C=C/CCCCCCc1ccc2c(c1)OCO2)N1CCCCC1 [Chemical Formula 3, piperrolein B]
The IC50 of the first is 24-fold lower: 3.7 µM for the first, 87.5 µM for the second. The first is the more potent here.

Going from `CC(C)CNC(=O)/C=C/C=C/CC/C=C/c1ccc2c(c1)OCO2` [Chemical Formula 1, retrofractamide A] to `CC(C)CNC(=O)/C=C/CCCCCC/C=C/c1ccc2c(c1)OCO2` [Chemical Formula 4, piperchabamide D], the IC50 falls from 24.5 µM to 11.5 µM (2.1-fold). The second is the more potent here.

`CCCCC/C=C/C=C/C(=O)NCC(C)C` [Chemical Formula 5, pellitorin] and obovatol [reference compound] are within 1.5-fold of each other in IC50: 40.4 µM for the first, 44 µM for the second.
